Assay results: ChEMBL document CHEMBL1140676, “Evaluation of broad spectrum protein kinase inhibitors to probe the architecture of the malarial cyclin dependent protein kinase Pfmrk” (Bioorg Med Chem Lett, 2007)

Experiments:
[1] = molecular target: T1, Protein kinase Pfmrk (Plasmodium falciparum, UniProt P90584); experiment: Inhibition of Plasmodium falciparum Pfmrk
T1 sequence (P90584 whole entry): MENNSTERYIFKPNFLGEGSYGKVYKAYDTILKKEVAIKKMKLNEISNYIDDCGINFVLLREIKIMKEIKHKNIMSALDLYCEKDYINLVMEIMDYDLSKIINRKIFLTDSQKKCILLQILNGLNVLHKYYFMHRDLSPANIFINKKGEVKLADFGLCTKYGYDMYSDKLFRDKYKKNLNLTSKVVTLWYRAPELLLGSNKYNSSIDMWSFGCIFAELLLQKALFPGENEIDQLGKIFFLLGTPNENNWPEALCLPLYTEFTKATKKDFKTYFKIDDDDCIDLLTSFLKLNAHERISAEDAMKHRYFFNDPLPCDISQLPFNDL

[2] = test system: Plasmodium falciparum; experiment: Antimalarial activity against drug-resistant Plasmodium falciparum D6; assay type: functional, organism-based
[3] = test system: Plasmodium falciparum; experiment: Antimalarial activity against drug-resistant Plasmodium falciparum W2; assay type: functional, organism-based

Row | SMILES | IC50 [1] [µM] | IC50 [2] [µM] | IC50 [3] [µM]
1 | O=S(=O)(NCCNC/C=C/c1ccc(Br)cc1)c1cccc2cnccc12 | > 500 | 4.8 | 2.1
2 | C[C@H]1CNCCN1S(=O)(=O)c1cccc2cnccc12 | > 500 | > 69 | 5.4
3 | N=C(N)NCCNS(=O)(=O)c1cccc2cnccc12 | > 500 |  | 
4 | CNCCNS(=O)(=O)c1cccc2cnccc12 | 70 | > 74 | > 37
5 | O=S(=O)(c1cccc2c(I)cccc12)N1CCCNCC1 | > 500 |  | 
6 | NCCCCNS(=O)(=O)c1cccc2c(Cl)cccc12 | > 500 |  | 
7 | NCCCCNS(=O)(=O)c1ccc2ccccc2c1 | > 500 |  | 
8 | NCCNS(=O)(=O)c1cccc2cnccc12 | 0.7 | > 72 | > 72
9 | NCCCCCCNS(=O)(=O)c1cccc2c(Cl)cccc12 | > 500 | 8.8 | 15
10 | O=S(=O)(c1cccc2c(Cl)cccc12)N1CCCNCC1 | > 500 |  | 
11 | O=S(=O)(c1cccc2cnccc12)N1CCNCC1 | > 500 | > 36 | 4.3
12 | O=S(=O)(c1cccc2cnccc12)N1CCCNCC1 [FASUDIL] | > 500 |  | 
